9 compounds from ChEMBL document CHEMBL1201862, “PubChem BioAssay data set” (2004) can be followed below.

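Method: 48-hour compound exposure of cells in 96-well plates, five concentrations, linear interpolation of endpoints. Here, GI50 denotes the concentration required for 50% inhibition of growth.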 Calls of active or inactive are those of the source. Rule as the data show it: active = GI50 up to about 1.1 µM and inactive = higher.

Among the test systems are 786-0; ACHN; BT-549; CCRF-CEM; HCT-116; HCT-15; HOP-62; HT-29; Hs-578T; IGROV-1; K562; LOX IMVI; M14; MDA-MB-231; MDA-N; NCI-H23; SF-539; SK-MEL-28; SNB-19; U-251.
Holding throughout (experiment): NCI anticancer screen, dose series, 48 h

For the compound `CC1(C)O[C@@H]2C[C@H]3[C@@H]4C[C@H](F)C5=CC(=O)C=C[C@]5(C)[C@@]4(F)[C@@H](O)C[C@]3(C)[C@]2(C(=O)CO)O1` [FLUOCINOLONE ACETONIDE], the GI50 with 786-0 is > 100 µM (inactive); with ACHN, > 100 µM (inactive); in the assay with BT-549, > 100 µM (inactive); in the assay on CCRF-CEM, < 0.01 µM (active); in the assay with HCT-116 it was > 100 µM (inactive); in the assay on HCT-15 it was over 100 µM. Further, the GI50 with HOP-62, in the assay with HT-29, in the assay with Hs-578T, with IGROV-1, with K562 and in the assay with LOX IMVI was > 100 µM (inactive) in each case. For the same compound, the GI50 in the assay with M14, with MDA-MB-231, with MDA-N, in the assay with NCI-H23, with SF-539 and in the assay on SK-MEL-28 was > 100 µM (inactive) in each case. In addition, the GI50 in the assay with SNB-19 and with U-251 was > 100 µM (inactive) in each case.

Turning to `COc1ccc(-c2c(N)n(-c3cc(OC)cc(OC)c3)c(=O)c3cc([N+](=O)[O-])ccc23)cc1`, the GI50 with 786-0 is > 49.5 µM (inactive); in the assay with ACHN, > 100 µM (inactive); with BT-549, 19.2 µM (inactive); in the assay with CCRF-CEM, > 77.8 µM (inactive); with HCT-116, 21.9 µM (inactive); with HCT-15 it was over 54.5 µM. For the same compound, the GI50 with HOP-62 was > 100 µM (inactive); in the assay on HT-29 it was > 53.2 µM (inactive); in the assay with Hs-578T, 6.01 µM (inactive); in the assay on IGROV-1 it was > 52.6 µM (inactive); in the assay on K562 it was 23.8 µM (inactive); with LOX IMVI, 24.7 µM (inactive). Also, the GI50 with M14 was 32.4 µM (inactive); in the assay with MDA-MB-231 it was 28.6 µM (inactive); in the assay on MDA-N, > 50.8 µM (inactive); in the assay with NCI-H23, > 92 µM (inactive); with SF-539, > 78.3 µM (inactive); in the assay with SK-MEL-28, > 100 µM (inactive). Moreover, the GI50 in the assay on SNB-19 was 28.3 µM (inactive); with U-251 it was > 100 µM (inactive).

Turning to `O=C(O)CN(CCNC(=O)OCC1c2ccccc2-c2ccccc21)CCNC(=O)OCC1c2ccccc2-c2ccccc21`, the GI50 was 20.1 µM (inactive) in the assay with 786-0; 20.6 µM (inactive) in the assay on ACHN; 27.2 µM (inactive) in the assay with BT-549; 24.5 µM (inactive) with CCRF-CEM; 17.7 µM (inactive) with HCT-116; 27.2 µM with HCT-15. The GI50 is 21.3 µM (inactive) with HOP-62; 17.5 µM (inactive) with HT-29; 43.9 µM (inactive) with Hs-578T; 20.6 µM (inactive) in the assay with IGROV-1; 19 µM (inactive) in the assay with K562; 18.1 µM (inactive) in the assay on LOX IMVI. For the same compound, the GI50 in the assay on M14 is 28.8 µM (inactive); with MDA-MB-231 it was 17.4 µM (inactive); in the assay with MDA-N, 20 µM (inactive); in the assay on NCI-H23 it was 24.8 µM (inactive); in the assay with SF-539, 25.4 µM (inactive); with SK-MEL-28 it was 25 µM (inactive). The GI50 is 29.6 µM (inactive) in the assay on SNB-19 and 20.1 µM (inactive) with U-251.

In the case of `O=C(O)c1ccc(C(=O)O)c(C(=O)Nc2ccc3c(c2)C(=O)c2ccccc2-3)c1`, the GI50 in the assay with 786-0 is > 100 µM (inactive); in the assay with ACHN, > 100 µM (inactive); in the assay on BT-549 it was > 100 µM (inactive); in the assay with CCRF-CEM, 48 µM (inactive); in the assay with HCT-116, > 100 µM (inactive); in the assay on HCT-15, over 100 µM. The GI50 in the assay with HOP-62, with HT-29, in the assay on Hs-578T, with IGROV-1, with K562 and in the assay with LOX IMVI was > 100 µM (inactive) in each case. Further, the GI50 in the assay on M14, in the assay with MDA-MB-231, in the assay on MDA-N, with NCI-H23, in the assay on SF-539 and in the assay with SK-MEL-28 was > 100 µM (inactive) throughout. The GI50 in the assay on SNB-19 and with U-251 was > 100 µM (inactive) in each case.

Consider `CC(=O)OC1(C)N=NC2(CCCCC2)O1` (stereo not given), for which the GI50 is > 100 µM (inactive) with 786-0; > 100 µM (inactive) with ACHN; > 100 µM (inactive) in the assay on BT-549; > 100 µM (inactive) in the assay on CCRF-CEM; > 100 µM (inactive) in the assay with HCT-116; over 100 µM with HCT-15. The GI50 in the assay with HOP-62, in the assay with HT-29, in the assay on Hs-578T, with IGROV-1, with K562 and in the assay with LOX IMVI was > 100 µM (inactive) in each case. In addition, the GI50 in the assay on M14, in the assay on MDA-MB-231, with MDA-N, in the assay with NCI-H23, in the assay on SF-539 and in the assay on SK-MEL-28 was > 100 µM (inactive) in each case. The GI50 with SNB-19 and in the assay on U-251 was > 100 µM (inactive) throughout.

Regarding `COc1ccc(C2=C(N)c3c(OC)cccc3C2=O)cc1`, the GI50 in the assay on 786-0 was 85.1 µM (inactive); in the assay with ACHN, > 10 µM (inactive); in the assay with BT-549, 48.6 µM (inactive); in the assay on CCRF-CEM, > 100 µM (inactive); in the assay on HCT-116, > 100 µM (inactive); in the assay on HCT-15, over 100 µM. Besides, the GI50 in the assay with HOP-62 was 22.5 µM (inactive); in the assay with HT-29, > 100 µM (inactive); in the assay with Hs-578T, 61.4 µM (inactive); with IGROV-1 it was 60.3 µM (inactive); in the assay on K562, > 100 µM (inactive); in the assay with LOX IMVI, 99.5 µM (inactive). Further, the GI50 in the assay with M14 was 97.5 µM (inactive); in the assay with MDA-MB-231, 96.6 µM (inactive); with MDA-N it was > 100 µM (inactive); with NCI-H23 it was > 100 µM (inactive); with SF-539, 15 µM (inactive); in the assay with SK-MEL-28, > 100 µM (inactive). Besides, the GI50 is > 100 µM (inactive) in the assay with SNB-19 and 64.9 µM (inactive) in the assay with U-251.

Consider `CC(=O)CC1CCC(=O)/C=C/C(=O)OC(CC(C)=O)CCC(=O)/C=C/C(=O)O1` (stereo not given), for which the GI50 in the assay on 786-0 was 5.15 µM (inactive); in the assay with ACHN it was 3.44 µM (inactive); with BT-549, 3.2 µM (inactive); in the assay on CCRF-CEM it was 1.6 µM (inactive); in the assay with HCT-116 it was 4.1 µM (inactive); with HCT-15 it was 2.1 µM. Moreover, the GI50 was 23.3 µM (inactive) in the assay on HOP-62; 11.2 µM (inactive) in the assay on HT-29; 27.9 µM (inactive) with Hs-578T; 16.1 µM (inactive) in the assay on IGROV-1; 3.25 µM (inactive) in the assay with K562; 18.6 µM (inactive) in the assay with LOX IMVI. Moreover, the GI50 in the assay with M14 is 3.7 µM (inactive); in the assay on MDA-MB-231, 5.09 µM (inactive); in the assay on MDA-N, 9.53 µM (inactive); with NCI-H23 it was 17.5 µM (inactive); in the assay with SF-539, 19.3 µM (inactive); in the assay with SK-MEL-28, 7.33 µM (inactive). The GI50 in the assay on SNB-19 is 19.8 µM (inactive); in the assay with U-251, 21.4 µM (inactive).

For the compound `COc1ccc2nc3cc([N+](=O)[O-])ccc3c(NNc3ccc([N+](=O)[O-])cc3)c2c1`, the GI50 with 786-0 was 36.9 µM (inactive); with ACHN, 46.9 µM (inactive); in the assay with BT-549, 43.1 µM (inactive); in the assay with CCRF-CEM, 30.8 µM (inactive); with HCT-116, 5.69 µM (inactive); in the assay with HCT-15 it was 55.8 µM. Moreover, the GI50 is 57.3 µM (inactive) in the assay with HOP-62; 7.46 µM (inactive) in the assay on HT-29; 55.3 µM (inactive) in the assay on Hs-578T; 7.96 µM (inactive) with IGROV-1; 7.19 µM (inactive) in the assay on K562; 61.1 µM (inactive) in the assay on LOX IMVI. Moreover, the GI50 is 43.4 µM (inactive) in the assay with M14; 44 µM (inactive) in the assay on MDA-MB-231; 30.5 µM (inactive) in the assay with MDA-N; 28.4 µM (inactive) in the assay with NCI-H23; 45.6 µM (inactive) with SF-539; 68.2 µM (inactive) in the assay with SK-MEL-28. Also, the GI50 in the assay with SNB-19 is 24 µM (inactive); with U-251, 20.8 µM (inactive).

As to `O=[N+]([O-])c1ccc(-[n+]2ccc3ccccc3c2)c([N+](=O)[O-])c1`, the GI50 with 786-0 was 1.73 µM (inactive); in the assay with ACHN, 2.02 µM (inactive); in the assay with BT-549 it was 4.83 µM (inactive); with CCRF-CEM, 1.54 µM (inactive); in the assay on HCT-116, 2.35 µM (inactive); in the assay with HCT-15 it was 1.86 µM. Also, the GI50 is 8.18 µM (inactive) in the assay with HOP-62; 2.33 µM (inactive) in the assay with HT-29; 7.6 µM (inactive) with Hs-578T; 3.1 µM (inactive) with IGROV-1; 1.55 µM (inactive) in the assay on K562; 1.95 µM (inactive) in the assay on LOX IMVI. Besides, the GI50 in the assay on M14 is 4.55 µM (inactive); in the assay on MDA-MB-231, 3.62 µM (inactive); in the assay with MDA-N it was 2.33 µM (inactive); with NCI-H23 it was 2.43 µM (inactive); in the assay on SF-539, 5.21 µM (inactive); in the assay with SK-MEL-28, 2.83 µM (inactive). Also, the results for the GI50 in the assay on SNB-19 and with U-251 were 18.1 µM (inactive) and 5.68 µM (inactive), respectively.
